# Data published in ChEMBL document CHEMBL3120092, “Discovery of GS-9669, a thumb site II non-nucleoside inhibitor of NS5B for the treatment of genotype 1 chronic hepatitis C infection” (J Med Chem, 2014).
# Tests used:
# Hepatitis C virus [1] = assay: Antiviral activity against Hepatitis C virus H77 genotype 1a infected in human HuH7 cells assessed as intrinsic antiviral potency after 72 hrs by luciferase reporter gene assay; type: functional, organism-based, Hepacivirus hominis; details: genotype 1a H77, Huh-7, 72 h
# [2] = Cytotoxicity against human MT4 cells after 5 days by Cell Titre Glo assay; type: cell-based
# [3] = Fraction unbound in cell culture medium at 2 uM at pH 7.4 by equilibrium dialysis method; type: ADME
# Hepatitis C virus [4] = assay: Antiviral activity against Hepatitis C virus H77 genotype 1a infected in human HuH7 cells assessed as observed antiviral potency after 72 hrs by luciferase reporter gene assay; type: functional, organism-based, Hepacivirus hominis; details: genotype 1a H77, Huh-7, 72 h
# Hepatitis C virus [5] = assay: Antiviral activity against Hepatitis C virus Con1 genotype 1b infected in human HuH7 cells after 72 hrs by luciferase reporter gene assay; type: functional, organism-based, Hepacivirus hominis; details: isolate Con1, Huh-7, 72 h
# [6] = Cytotoxicity against human HuH7 cells after 3 days by Cell Titre Glo assay; type: cell-based, Huh-7
# Hepatitis C virus [7] = assay: Antiviral activity against HCV genotype 1b harboring wild type NS5B polymerase infected in human HuH7-Lunet cells by luciferase reporter gene assay; type: functional, organism-based, Hepacivirus hominis; details: Huh-7
# Hepatitis C virus [8] = assay: Antiviral activity against HCV genotype 1b harboring NS5B polymerase M423T mutant infected in human HuH7-Lunet cells by luciferase reporter gene assay; type: functional, organism-based, Hepacivirus hominis; details: Huh-7
# Hepatitis C virus [9] = assay: Selectivity ratio of EC50 for HCV genotype 1b harboring NS5B polymerase M423T mutant to EC50 for HCV genotype 1b harboring wild type NS5B polymerase; type: functional, Hepacivirus hominis
# [10] = Mean residence time in Sprague-Dawley rat at 1 mg/kg, iv; type: ADME, organism-based; parameters: dose 1 mg/kg, route intravenous; details: in vivo
# [11] = Intrinsic cytotoxicity against human MT4 cells after 5 days by Cell Titre Glo assay; type: cell-based
# Hepatitis C virus [12] = assay: Antiviral activity against Hepatitis C virus H77 genotype 1a infected in human HuH7 cells assessed as plasma adjusted antiviral potency after 72 hrs by luciferase reporter gene assay; type: functional, organism-based, Hepacivirus hominis; details: genotype 1a H77, Huh-7, Plasma
# [13] = Lipophilicity, log D of the compound by chromatography; type: physicochemical
# [14] = Mean residence time in Sprague-Dawley rat at 0.5 mg/kg, iv; type: ADME, organism-based; parameters: dose 0.5 mg/kg, route intravenous; details: in vivo
SMILES,EC50 (Hepatitis C virus [1]) [nM],CC50 at 120 h [2] [nM],fraction unbound at 2 µM [3],EC50 (Hepatitis C virus [4]) [nM],EC50 (Hepatitis C virus [12]) [nM],also measured
CC1=CC[C@@H](C(=O)N(c2cc(C#CC(C)(C)C)sc2C(=O)O)C(C)C)CC1,3.7,> 20000,0.08,45,–,–
CC(C)(C)C#Cc1cc(N(C(=O)[C@H]2CC[C@H](C)CC2)[C@H]2C[C@@H](Oc3cccnc3)C2)c(C(=O)O)s1,6.4,> 20000,0.04,156,–,–
CC(C)(C)C#Cc1cc(N(C(=O)[C@H]2CC[C@H](C)CC2)C2CCN(S(C)(=O)=O)CC2)c(C(=O)O)s1,8.7,> 20000,0.17,51,–,–
C[C@@H](CCO)N(c1cc(C#CC(C)(C)C)sc1C(=O)O)C(=O)[C@H]1CC[C@H](C)CC1,3.3,> 20000,0.22,15,–,EC50 (Hepatitis C virus [5]): 7 nM; CC50 at 72 h [6]: ≥ 20000 nM
CC(C)N(c1cc(C#CC(C)(C)C)sc1C(=O)O)C(=O)[C@H]1CC[C@H](Cl)CC1,44,> 20000,0.14,315,–,–
CC1=CC[C@H](C(=O)N(c2cc(C#CC(C)(C)C)sc2C(=O)O)C(C)C)CC1,2.2,> 20000,0.07,31,–,EC50 (Hepatitis C virus [7]): 8 nM; EC50 (Hepatitis C virus [8]): 40 nM; Ratio EC50 (Hepatitis C virus [9]): 5
CC(C)(C)C#Cc1cc(N(C(=O)[C@H]2CC[C@H](C)CC2)[C@H]2CC[C@H](Oc3cccnc3)CC2)c(C(=O)O)s1,3.6,> 20000,0.03,128,–,MRT [10]: 3.4 h
CC(C)(C)C#Cc1cc(N(C(=O)[C@H]2CC[C@H](C)CC2)[C@H]2CC[C@H](OC3CCOCC3)CC2)c(C(=O)O)s1,2.4,> 20000,–,–,1830,CC50 at 120 h [11]: 1990 nM; chromatographic logD [13]: 2.4
C[C@H]1CC[C@H](C(=O)N(c2cc(C#CC3(C(F)(F)F)CC3)sc2C(=O)O)[C@H]2CC[C@H](Oc3ccc(O)nn3)CC2)CC1,6.9,> 20000,–,61,751,–
C[C@H]1CC[C@H](C(=O)N(c2cc(C#CC3(C(F)(F)F)CCC3)sc2C(=O)O)[C@H]2CC[C@H](Oc3ccc(O)nn3)CC2)CC1,2.7,> 20000,–,120,607,–
CC(C)(C)C#Cc1cc(N(C(=O)[C@H]2CC[C@H](C)CC2)[C@H]2CC[C@@H](Oc3cccnc3)CC2)c(C(=O)O)s1,1.2,> 20000,–,45,–,MRT [14]: 0.2 h
CC(C)N(c1cc(C#CC(C)(C)C)sc1C(=O)O)C(=O)[C@H]1CC[C@H](CF)CC1,31,> 20000,0.18,169,–,–
C[C@@H]1CC[C@@H](C(=O)N(c2cc(C#CC(C)(C)C)sc2C(=O)O)[C@H]2CC[C@H](OC3CCOC3)CC2)[C@@H](O)C1 (stereo partly specified),2,> 20000,–,–,138,CC50 at 120 h [11]: 11600 nM; MRT [14]: 1.9 h; chromatographic logD [13]: 2.2
CCC[C@]1(CC(=O)O)OCCc2c1[nH]c1c(C)ccc(C#N)c21,–,> 20000,–,–,–,–
CC(C)(C)C#Cc1cc(N(C(=O)[C@H]2CC[C@H](C)CC2)[C@H]2CC[C@](O)(CO[C@H]3CCOC3)CC2)c(C(=O)O)s1,2.2,> 20000,–,–,208,EC50 (Hepatitis C virus [7]): 12 nM; CC50 at 120 h [11]: 8980 nM; EC50 (Hepatitis C virus [8]): 47 nM; MRT [14]: 3.8 h; chromatographic logD [13]: 2.4; Ratio EC50 (Hepatitis C virus [9]): 4
CC(C)(C)C#Cc1cc(N(C(=O)[C@H]2CC[C@H](C)CC2)[C@H]2CC[C@H](OC3COC3)CC2)c(C(=O)O)s1,4.3,> 20000,–,–,102,CC50 at 120 h [11]: 8350 nM; chromatographic logD [13]: 2.6
CC1CC=C(C(=O)N(c2cc(C#CC(C)(C)C)sc2C(=O)O)C(C)C)CC1 (stereo unspecified),65,> 20000,0.08,773,–,–
C[C@@H](CCOc1cccnc1)N(c1cc(C#CC(C)(C)C)sc1C(=O)O)C(=O)[C@H]1CC[C@H](C)CC1,2.4,> 20000,0.02,102,–,–
CC(C)N(C(=O)C1CCCCC1)c1cc(C#CC(C)(C)C)sc1C(=O)O,500,> 20000,0.18,2800,–,–

SMILES,EC50 (Hepatitis C virus [1]) [nM],CC50 at 120 h [2] [nM],fraction unbound at 2 µM [3],EC50 (Hepatitis C virus [4]) [nM],EC50 (Hepatitis C virus [12]) [nM],also measured
CC(C)N(C(=O)[C@H]1[C@@H]2CCCC[C@@H]21)c1cc(C#CC(C)(C)C)sc1C(=O)O,206,> 20000,0.04,4680,–,–
CON=C1CCC(N(c2cc(C#CC(C)(C)C)sc2C(=O)O)C(=O)[C@H]2CC[C@H](C)CC2)CC1 (stereo partly specified),6.1,> 20000,0.07,88,–,–
CC(C)N(C(=O)[C@H]1CC[C@@H]2C[C@@H]2CC1)c1cc(C#CC(C)(C)C)sc1C(=O)O,483,> 20000,0.08,6190,–,–
CC(C)(C)C#Cc1cc(N(C(=O)[C@H]2CC[C@H](C)CC2)[C@H]2CC[C@H](Oc3ccncn3)CC2)c(C(=O)O)s1,2.8,> 20000,–,75,1390,CC50 at 120 h [11]: 599 nM; MRT [14]: 7.1 h; chromatographic logD [13]: 2.3
CC(C)N(C(=O)[C@@H]1CC[C@@H]2C[C@@H]2CC1)c1cc(C#CC(C)(C)C)sc1C(=O)O,88,> 20000,0.05,1620,–,–
CC(C)N(C(=O)C1CCCCCC1)c1cc(C#CC(C)(C)C)sc1C(=O)O,225,> 20000,0.11,2020,–,–
CC(C)(C#Cc1cc(N(C(=O)[C@H]2CC[C@H](C)CC2)[C@H]2CC[C@H](OC3CCOC3)CC2)c(C(=O)O)s1)CCO (stereo partly specified),6.1,> 20000,–,–,167,CC50 at 120 h [11]: 31300 nM; MRT [14]: 0.4 h; chromatographic logD [13]: 1.6
CC(C)N(c1cc(-c2ccccc2)sc1C(=O)O)C(=O)[C@H]1CC[C@H](C)CC1,170,> 20000,0.08,2100,–,EC50 (Hepatitis C virus [5]): 593 nM; CC50 at 72 h [6]: ≥ 20000 nM
CC(C)(C)C#Cc1cc(N(C(=O)[C@H]2CC[C@H](C)CC2)[C@H]2CC[C@H](Oc3nccs3)CC2)c(C(=O)O)s1,1.5,> 20000,–,84,–,MRT [10]: 2.8 h
CC(C)N(c1cc(C#CC(C)(C)C)sc1C(=O)O)C(=O)[C@H]1CC[C@H](C)CC1,5.5,> 20000,0.06,–,–,CC50 at 72 h [6]: ≥ 20000 nM; EC50 (Hepatitis C virus [8]): 293 nM; Ratio EC50 (Hepatitis C virus [9]): 11
CC(C)(C)C#Cc1cc(N(C(=O)[C@H]2CC[C@H](C)CC2)[C@H]2CC[C@@H](Oc3ccc(O)nn3)CC2)c(C(=O)O)s1,2.6,> 20000,–,24,277,CC50 at 120 h [11]: 2170 nM; MRT [14]: 0.5 h; chromatographic logD [13]: 1.8
CC(C)(C)C#Cc1cc(N(C(=O)[C@H]2CC[C@H](C)CC2)[C@H]2CC[C@H](OC3CCOC3)CC2)c(C(=O)O)s1 (stereo partly specified),4.3,> 20000,–,55,749,CC50 at 120 h [11]: 3070 nM; MRT [14]: 3.5 h; chromatographic logD [13]: 2.3
CC(C)(C)C#Cc1cc(N(CCO)C(=O)[C@H]2CC[C@H](C)CC2)c(C(=O)O)s1,–,> 20000,–,304,–,EC50 (Hepatitis C virus [5]): 78 nM; CC50 at 72 h [6]: ≥ 20000 nM
CC(C)(C)C#Cc1cc(N(C(=O)[C@H]2CC[C@H](C)CC2)[C@H]2CC[C@H](Oc3ccc(=O)[nH]n3)CC2)c(C(=O)O)s1,3.5,> 20000,–,39,285,CC50 at 120 h [11]: 1480 nM; MRT [14]: 1.6 h; chromatographic logD [13]: 2
CC(C)(C#Cc1cc(N(C(=O)[C@H]2CC[C@H](C)CC2)[C@H]2CC[C@H](Oc3ccc(O)nn3)CC2)c(C(=O)O)s1)C(F)(F)F,4.9,> 20000,–,51,516,–
CC(C)N(C(=O)C1CCC(F)(F)CC1)c1cc(C#CC(C)(C)C)sc1C(=O)O,12800,> 20000,0.4,32100,–,–
CC(C)(C)C#Cc1cc(N(C(=O)[C@H]2CC[C@H](C)CC2)[C@H]2CC[C@@](O)(CO[C@H]3CCOC3)CC2)c(C(=O)O)s1,4.3,> 20000,–,–,191,CC50 at 120 h [11]: 18100 nM; MRT [14]: 0.2 h
CC(C)(C)C#Cc1cc(N(C(=O)[C@H]2CC[C@H](C)CC2)[C@H]2CC[C@H](Oc3ccccn3)CC2)c(C(=O)O)s1,2.5,> 20000,–,297,1050,CC50 at 120 h [11]: 100 nM; MRT [10]: 5 h; chromatographic logD [13]: 3
CC(C)(C)C#Cc1cc(N(C(=O)[C@H]2CC[C@H](C)CC2)C2CCN(C(=O)c3cccnc3)CC2)c(C(=O)O)s1,43,> 20000,0.23,183,–,–
